Series [1] has as its system A-549 lung carcinoma cells. Put plainly: CellTiter-Glo luminescent cell viability (cytotoxicity) assay on lung cancer cells. It counts as cell-based, human. Particulars: for viability at 0.1 µM / viability at 1 µM / viability at 10 µM / viability at 50 µM / viability at 100 µM: Homo sapiens, A549, Lung cancer cells (A-549), 24 h, vs DMSO vehicle; for Lung cancer cells killed: A-549; for viability at 10 µM / Lung cancer cells killed: 10 µM. How it is done:
(§1) The cytotoxicity of prepared benzoxazoles (7a–j) and intermediates (6a–j and 9) were measured by applying the CellTiter-Glo® luminescent cell proliferation assay (G755A, Promega, Madison, WI, USA). This method permits the determination of viable cells numbers in the culture based on quantitation of the ATP present, which denotes the presence of metabolically active cells. In vitro cytotoxicity analysis was overall performed following the protocol as described in “Guidance Document on Using in Vitro Data to Estimate in Vivo Starting Doses for Acute Toxicity Based on Recommendations” [18]. Human A-549 cells are human lung cancer epithelial cells, which were chosen as the tumor model, whereas the HepaRG™ cell line is a classic hepatic cell line that retains many characteristics of primary human hepatocytes. HepaRG™ cells are terminally differentiated.
(§2) Human cell cultures: Hepatocytes (HepaRG^TM cells) were obtained from Life Technologies, and were cultivated in William’s E Medium (Gibco, Life Technologies, Waltham, MA, USA) and supplemented with 1x GlutaMAX™ plus 1x HepaRG^TM General Purpose Medium Supplement in 25-cm^2 or 75-cm^2 flasks (TPP, Trasadingen, Switzerland) at 37 °C and 5% CO2. Lung cancer epithelial cells A-549 were propagated in Epilife Medium (Gibco, Life Technologies; MEPICF) and combined with CaCl2 and 1x-growth-supplement containing penicillin and streptomycin (Gibco, Life Technologies). For sub-culturing, cells were split at a ratio of 1:4 to 1:8. For cryopreservation, cells were frozen in 10% DMSO in liquid nitrogen.
(§3) Human cytotoxicity assay: Human hepatocytes or human lung carcinoma cells were seeded into sterile black clear-bottomed polystyrene Corning® CellBind® 96-well plates (Munich, Germany) at a density of 20,000 cells/well after calculating cell numbers from trypsinized samples in a classical Neubauer Improved hemocytometer (VWR, Munich, Germany). The cells were grown for 24 h at 37 °C in a 5% CO2 atmosphere in Epilife medium (keratinocytes) or William′s E medium (hepatocytes). After a 24-h recovery period, media were removed from the wells by aspiration. The cells were then immediately exposed to the respective test compounds or reference antibiotics (prepared in advance in 100 µL of the same media) for 24 h 37 °C with 5% CO2. The concentration tested ranged from 0.1 µM to 500 µM (0.1 µM, 1 µM, 10 µM, 50 µM, 100 µM, 250 µM, and 500 µM) and was formulated as a 100× concentrated stock each, resulting in a final constant DMSO concentration of 1% per 100-µL sample volume. Test series were each performed in triplicate, and additionally included a vehicle reference (DMSO only) plus another internal control for evaluating overall assay performance. Additionally, cells were visually examined under a light microscope for any morphological abnormalities relative to the untreated cells. Subsequently, cell viability, as an indicator of potential cytotoxicity, was measured by applying the CellTiter-Glo® luminescent cell proliferation assay (G755A, Promega, Madison, WI, USA). This method permits the determination of the number of viable cells in culture based on quantitation of the ATP present, which denotes the presence of metabolically active cells. To this end, 100 µL (equal to the volume of culture medium) of the kit-provided CellTiter-Glo® reagent (reconstituted by transferring the thawed CellTiter-Glo® buffer to the lyophilized enzyme and substrate mixture) was directly added to each well with a repetitive dispensing pipette. The contents were then mixed for 2 min at room temperature on an orbital minishaker (IKA® MS3 digital, Staufen, Germany) at 450 rpm to induce efficient cell lysis, and then further incubated for 10 min at room temperature for stabilization of the resultant luminescent signal. […]
(In general: Cellular ATP, detected with luciferase, serves as a proxy for viable cell number.)

Series [2] is described as follows: CellTiter-Glo luminescent cell viability (cytotoxicity) assay on hepatocytes. It counts as cell-based, human. The following applies: human, Liver cells, hepatocytes (HepaRG), 24 h, vs DMSO vehicle. How it is done:
as §1, §2, §3

Molecules are shown by their SMILES.

By melting point is commonly meant the temperature, or range, at which the solid turns liquid. As usually defined, the viability is a read-out of living cells in per cent, often relative to untreated cells. `COc1ccc(N2CCN(c3cc(O)c([N+](=O)[O-])cc3F)CC2)cc1` [Compound 6e, 4-Fluoro-5-[4-(4-methoxy-phenyl)-piperazin-1-yl]-2-nitro-phenol] registered a melting point of 202 to 204 °C. For the same molecule, in series [1], the viability at 0.1 µM was determined as 101%, the viability at 1 µM turned out to be 104%, the viability at 10 µM came to 96% and the viability at 50 µM was found to be 71%. In series [2], the viability at 24 h, 0.1 µM turned out to be 107%; the viability at 24 h, 1 µM came to 110%; the viability at 24 h, 10 µM is 104%; the viability at 24 h, 50 µM is 74%. Also, the viability at 24 h, 100 µM in series [2] worked out at 79%.
Turning to `O=[N+]([O-])c1cc(F)c(N2CCN(c3ccc(O)cc3)CC2)cc1O` [Compound 6c, 4-Fluoro-5-[4-(4-hydroxy-phenyl)-piperazin-1-yl]-2-nitro-phenol], the melting point was in the range of 218 to 219 °C. In addition, in series [1], the viability at 0.1 µM is 104%, the viability at 1 µM turned out to be 103%, the viability at 10 µM turned out to be 102% and the viability at 50 µM came to 94%. Also, in series [2], the viability at 24 h, 0.1 µM came to 95%; the viability at 24 h, 1 µM worked out at 101%; the viability at 24 h, 10 µM worked out at 110%; the viability at 24 h, 50 µM stood at 101%. Also, the viability at 24 h, 100 µM in series [2] stood at 89%.
Molecule `O=[N+]([O-])c1cc(F)c(N2CCN(c3ccc(Cl)c(Cl)c3)CC2)cc1O` [Compound 6j, 5-[4-(3,4-Dichloro-phenyl)-piperazin-1-yl]-4-fluoro-2-nitro-phenol] yielded a melting point of 211 to 213 °C. Moreover, in series [1], the viability at 0.1 µM came out at 98%, the viability at 1 µM worked out at 94%, the viability at 10 µM is 65% and the viability at 50 µM amounted to 62%. In addition, in series [2], the viability at 24 h, 0.1 µM was determined as 119%; the viability at 24 h, 1 µM came to 115%; the viability at 24 h, 10 µM was determined as 81%; the viability at 24 h, 50 µM was 102%. In addition, the viability at 24 h, 100 µM in series [2] was determined as 108%.
As for `O=[N+]([O-])c1cc(F)c(N2CCN(c3cccc(O)c3)CC2)cc1O` [Compound 6h, 4-Fluoro-5-[4-(3-hydroxy-phenyl)-piperazin-1-yl]-2-nitro-phenol], the melting point was in the range of 207 to 208 °C. Also, in series [1], the viability at 0.1 µM worked out at 106%, the viability at 1 µM was 106%, the viability at 10 µM turned out to be 105% and the viability at 50 µM was 87%. In series [2], the viability at 24 h, 0.1 µM stood at 117%; the viability at 24 h, 1 µM was determined as 109%; the viability at 24 h, 10 µM is 108%; the viability at 24 h, 50 µM was 83%. Further, the viability at 24 h, 100 µM in series [2] is 58%.
On to `COc1ccc(N2CCN(c3cc4oc(C)nc4cc3F)CC2)cc1` [Compound 7e, 5-Fluoro-6-[4-(4-methoxy-phenyl)-piperazin-1-yl]-2-methyl-benzooxazole], for which the melting point fell in the range of 156 to 157 °C. Also, in series [1], the viability at 0.1 µM came to 93%, the viability at 1 µM was determined as 92%, the viability at 10 µM is 75% and the viability at 50 µM was 74%. Moreover, the viability at 100 µM in series [1] worked out at 68%. Besides, in series [2], the viability at 24 h, 0.1 µM amounted to 107%; the viability at 24 h, 1 µM worked out at 108%; the viability at 24 h, 10 µM was found to be 91%; the viability at 24 h, 50 µM turned out to be 71%.
For the molecule `O=[N+]([O-])c1cc(F)c(N2CCN(c3ccccc3O)CC2)cc1O` [Compound 6f, 4-Fluoro-5-[4-(2-hydroxy-phenyl)-piperazin-1-yl]-2-nitro-phenol], the melting point was in the range of 176 to 178 °C. In series [1], the viability at 0.1 µM came to 97%, the viability at 1 µM worked out at 100%, the viability at 10 µM is 93% and the viability at 50 µM came out at 60%. Moreover, the viability at 100 µM in series [1] is 46%. Besides, in series [2], the viability at 24 h, 0.1 µM is 105%; the viability at 24 h, 1 µM came out at 104%; the viability at 24 h, 10 µM turned out to be 110%; the viability at 24 h, 50 µM was 76%.
In turn, `Cc1nc2cc(F)c(N3CCN(c4ccc(O)cc4)CC3)cc2o1` [Compound 7c, 4-[4-(5-Fluoro-2-methyl-benzooxazol-6-yl)-piperazin-1-yl]-phenol] displayed a melting point of 188 to 191 °C. Further, in series [1], the viability at 0.1 µM is 92%, the viability at 1 µM was found to be 97%, the viability at 10 µM was determined as 101% and the viability at 50 µM is 90%. For the same molecule, the viability at 100 µM in series [1] stood at 83%. For the same molecule, in series [2], the viability at 24 h, 0.1 µM amounted to 98%; the viability at 24 h, 1 µM stood at 107%; the viability at 24 h, 10 µM came to 101%; the viability at 24 h, 50 µM came out at 93%.
Regarding `O=[N+]([O-])c1cc(F)c(Cl)cc1O`, the melting point is 82 to 83 °C.
In turn, `O=[N+]([O-])c1cc(F)c(N2CCN(c3ccccc3F)CC2)cc1O` [Compound 6g, 4-Fluoro-5-[4-(2-fluoro-phenyl)-piperazin-1-yl]-2-nitro-phenol] gave a melting point of 180 to 181 °C. In series [1], the “Lung cancer cells killed” value is reported as ~ 40%, the viability at 0.1 µM worked out at 96%, the viability at 1 µM worked out at 96% and the viability at 10 µM is 62%. In series [1], the viability at 50 µM was 51% and the viability at 100 µM is 42%. For the same molecule, in series [2], the viability at 24 h, 0.1 µM came to 110%; the viability at 24 h, 1 µM came to 109%; the viability at 24 h, 10 µM stood at 112%; the viability at 24 h, 50 µM stood at 87%.
Regarding `O=[N+]([O-])c1cc(F)c(N2CCN(c3ccccc3)CC2)cc1O` [Compound 6a, 4-Fluoro-2-nitro-5-(4-phenyl-piperazin-1-yl)-phenol], the melting point was 197 to 198 °C. In series [1], the “Lung cancer cells killed” value is recorded as ~ 40%, the viability at 0.1 µM is 97%, the viability at 1 µM is 104% and the viability at 10 µM is 64%. Besides, in series [1], the viability at 50 µM stood at 61% and the viability at 100 µM is 58%. In series [2], the viability at 24 h, 0.1 µM is 86%; the viability at 24 h, 1 µM was determined as 97%; the viability at 24 h, 10 µM turned out to be 112%; the viability at 24 h, 50 µM was found to be 90%. Further, the viability at 24 h, 100 µM in series [2] is 76%.
As for `Cc1ccc(N2CCN(c3cc(O)c([N+](=O)[O-])cc3F)CC2)cc1` [Compound 6b, 4-Fluoro-2-nitro-5-(4-p-tolyl-piperazin-1-yl)-phenol], the melting point was in the range of 178 to 179 °C. Also, in series [1], the viability at 0.1 µM is 99%, the viability at 1 µM was found to be 100%, the viability at 10 µM was 68% and the viability at 50 µM is 65%. Besides, in series [2], the viability at 24 h, 0.1 µM was determined as 107%; the viability at 24 h, 1 µM was 123%; the viability at 24 h, 10 µM was found to be 120%; the viability at 24 h, 50 µM turned out to be 97%. Also, the viability at 24 h, 100 µM in series [2] amounted to 96%.
